Laboratory results taken from US7728036B2, “Methods for delivery of catecholic butanes for treatment of tumors” (priority 2003, dated 2010).
“Also recorded” adds a separate entry of the source.

Tests used:
[1] = Maximal tolerable dose study in beagle dogs, clinical observations; type: in vivo; conditions: over four hours
Method: Thus the M4N-DMSO group animals were administered with M4N-DMSO with eight intravenous injections via the non-VAP jugular vein every 30 minutes over a 4-hour period. This frequency of delivery mimicked the delivery of the test article using the infusion pump.
Animals from the CET group were observed during the entire infusion period and for at least one hour following end of infusion. The dogs in the DMSO group were observed throughout the jugular vein injection period and for at least one hour following the last (eighth) injection.

[2] = system: refractory head and neck carcinomas; type: in vivo, human
Excerpt: Eight male subjects and one […] participated. Mean weight was 139 lbs. (range 102 to 219 lbs.).

[3] = Tissue distribution after short-term oral feeding of M4N (HPLC); type: in vivo, mice
Method: Tissue Distribution and Toxicity Analysis Following Short-Term and Long-Term Oral Feeding. For short-term feeding experiments, 30 mg of M4N dissolved in 300 μL castor oil was orally administered to each of 6 mice. At 2 h, 4 h, and 8 h post-administration time points, 2 mice were sacrificed, the organs and blood were collected, and the M4N extracted and quantitated as described below. In long-term feeding experiments, mice were fed food balls consisting of M4N dissolved in corn oil and Basal Mix (Harlan Teklad; Madison, Wis.; Cat. # TD 02273) for 14 weeks. Food balls weighed 9 g and contained 242 mg M4N each. Two mice, one male and one female, were reserved for long-term drug retention studies; and fourteen mice, both male and female, were used for long-term drug toxicity studies. At the end of feeding, mice were sacrificed, the organs and blood were collected, and the M4N extracted and quantitated as described below.
M4N Extraction and HPLC Analysis Following Oral Feeding. Organs and blood were harvested from M4N-fed mice, then frozen overnight at −80° C. Prior to freezing, gastro-intestinal organs (stomach, small intestine, colon) were cut open longitudinally and washed thoroughly with PBS to remove any contents. The following day, organs were cut into small pieces on dry ice with a razor blade, dried in a Speed-vac, then crushed into a rough powder using a mortar and pestle. Samples were extracted overnight in 100% ethanol with shaking. Samples were centrifuged and the supernatant collected. Pellets were extracted two more times in 100% ethanol overnight with shaking. The pooled ethanol extracts were evaporated on bench top for several days, then re-extracted with ethyl acetate, and dried completely in a Speed-vac. The dried samples were then analyzed quantitatively by HPLC and M4N was identified by mass spectroscopy using pure M4N as a standard.
In samples from short-term fed mice, dialysis was performed to further purify M4N from the tissue extracts. Dried ethanol extracts were redissolved in 1.5 mL 100% EtOH and centrifuged for 5 min. The supernatant was collected and the pellet was resuspended in 0.4 mL ethanol and centrifuged again. The supernatant was pooled with the previous supernatant, then dialyzed overnight against 150 mL 100% EtOH. The dialysates were dried on bench top and in a speed-vac, then analyzed by HPLC.
HPLC Quantitation of M4N. Samples from a single mouse at each time point were sent to KP Pharmaceuticals (Bloomington, Ind.) for HPLC analysis. HPLC conditions were described as follows: 35%:0.1% TFA in H2O, 65%=“CAN.” The M4N standard was prepared by diluting 10.01 mg M4N in 100 mL of CAN, then sonicating for 5 min. (2002 ng/injection). The samples were prepared by adding 400 μL EtOH and sonicating for 2 min. or until complete dissolution was achieved. The injection volume for the samples was 100 μL.
The convenience and ease of oral administration, however, especially in the case of long-term post-surgical adjuvant treatment, would considerably facilitate drug administration to patients and would improve patient quality of life. Thus, in addition to i.p. and i.v. administration, the ability to systemically distribute M4N by oral administration was also investigated. In both short-term (<8 hours) feeding experiments and long-term (14 weeks) feeding experiments, M4N levels in various tissues and their in vivo toxicity was assessed. In short-term experiments, mice were fed 30 mg of M4N dissolved in castor oil (100 mg M4N/mL castor oil), and at 2, 4, and 8 hours post-feeding, the quantity of M4N present in various tissues was determined by HPLC.

[4] = system: HPV-16 transformed immortal mouse epithelial cells (C3); conditions: intratumor injection; cited from earlier work
[5] = system: head and neck cancer; test: Ex-US clinical study in head and neck cancer, daily M4N with or without G4N followed by surgical resection; type: in vivo, human
[6] = system: various human tumor cells; test: Cell culture analyses of tumor cell growth; type: cell-based
[7] = patients that completed the treatment

**Q.** What does the source list for `COc1ccc(C[C@@H](C)[C@@H](C)Cc2ccc(OC)c(OC)c2)cc1OC` [M4N, meso-1,4-bis(3,4-dimethoxyphenyl)-2,3-dimethylbutane]?
**A.** Dose safely administered by intravenous infusion ([1]; CET vehicle): up to 10 mg/kg; Dose safely administered intravenously ([1]; DMSO vehicle): up to 100 mg/kg; Damage to healthy tissue surrounding the tumor ([2]; in vivo): No damage; Dose delivered without drug-related toxicity ([2]; in vivo): up to 495 mg weekly; Other adverse events attributed to M4N ([2]; in vivo): No other adverse events; Relation of SAEs to study medication ([2]; in vivo): unlikely or not related to study medication; Serious Adverse Events reported ([2]; in vivo): 6; Subjects with Serious Adverse Events ([2]; in vivo): 4 subjects; Subjects with severe radiating pain on injection ([2]; in vivo): One; Subjects with sporadic mild elevations in LFTs ([2]; in vivo): 2 subjects; Subjects with drug related tumor necrosis after injection ([2]; of 6 subjects receiving three doses): 5 subjects; Patients with radiologically confirmed tumor volume reduction ([2]; of the six patients completing three doses): three; Efficacy in terms of induction of necrosis [2, 7]: over 80%; Quantity of M4N in each tissue ([3]; 2 hours post-feeding, 30 mg oral): < 2 ng per gram tissue; M4N levels ([3]; 8 hours post-feeding): decreased in nearly all organs; M4N (ng)/organ dry weight (g) ([3]; Bladder, 2 hours after oral 30 mg M4N in castor oil): 2.34 ng/g; M4N (ng)/organ dry weight (g) ([3]; Bladder, 4 hours after oral 30 mg M4N in castor oil): 1.69 ng/g; M4N (ng)/organ dry weight (g) ([3]; Bladder, 8 hours after oral 30 mg M4N in castor oil): 0 ng/g; M4N (ng)/organ dry weight (g) ([3]; Blood, 2 hours after oral 30 mg M4N in castor oil): 0.5 ng/g; M4N (ng)/organ dry weight (g) ([3]; Blood, 4 hours after oral 30 mg M4N in castor oil): 2.08 ng/g; M4N (ng)/organ dry weight (g) ([3]; Blood, 8 hours after oral 30 mg M4N in castor oil): 0 ng/g; M4N (ng)/organ dry weight (g) ([3]; Caecum, 2 hours after oral 30 mg M4N in castor oil): 1.11 ng/g; M4N (ng)/organ dry weight (g) ([3]; Caecum, 4 hours after oral 30 mg M4N in castor oil): 4.38 ng/g; M4N (ng)/organ dry weight (g) ([3]; Caecum, 8 hours after oral 30 mg M4N in castor oil): 6.55 ng/g; M4N (ng)/organ dry weight (g) ([3]; Fat, 2 hours after oral 30 mg M4N in castor oil): 0.11 ng/g; M4N (ng)/organ dry weight (g) ([3]; Fat, 4 hours after oral 30 mg M4N in castor oil): 0 ng/g; M4N (ng)/organ dry weight (g) ([3]; Fat, 8 hours after oral 30 mg M4N in castor oil): 0 ng/g; M4N (ng)/organ dry weight (g) ([3]; Heart, 2 hours after oral 30 mg M4N in castor oil): 0.83 ng/g; M4N (ng)/organ dry weight (g) ([3]; Heart, 4 hours after oral 30 mg M4N in castor oil): 0.11 ng/g; M4N (ng)/organ dry weight (g) ([3]; Heart, 8 hours after oral 30 mg M4N in castor oil): 1.16 ng/g; M4N (ng)/organ dry weight (g) ([3]; Kidneys, 2 hours after oral 30 mg M4N in castor oil): 0.12 ng/g; M4N (ng)/organ dry weight (g) ([3]; Kidneys, 4 hours after oral 30 mg M4N in castor oil): 0.61 ng/g; M4N (ng)/organ dry weight (g) ([3]; Kidneys, 8 hours after oral 30 mg M4N in castor oil): 0 ng/g; M4N (ng)/organ dry weight (g) ([3]; Lg. Intestine, 2 hours after oral 30 mg M4N in castor oil): 0.24 ng/g; M4N (ng)/organ dry weight (g) ([3]; Lg. Intestine, 4 hours after oral 30 mg M4N in castor oil): 8.24 ng/g; M4N (ng)/organ dry weight (g) ([3]; Lg. Intestine, 8 hours after oral 30 mg M4N in castor oil): 2.68 ng/g; M4N (ng)/organ dry weight (g) ([3]; Liver, 2 hours after oral 30 mg M4N in castor oil): 0.05 ng/g; M4N (ng)/organ dry weight (g) ([3]; Liver, 4 hours after oral 30 mg M4N in castor oil): 0.52 ng/g; M4N (ng)/organ dry weight (g) ([3]; Liver, 8 hours after oral 30 mg M4N in castor oil): 0 ng/g; M4N (ng)/organ dry weight (g) ([3]; Lungs, 2 hours after oral 30 mg M4N in castor oil): 0.43 ng/g; M4N (ng)/organ dry weight (g) ([3]; Lungs, 4 hours after oral 30 mg M4N in castor oil): 0 ng/g; M4N (ng)/organ dry weight (g) ([3]; Lungs, 8 hours after oral 30 mg M4N in castor oil): 2.7 ng/g; M4N (ng)/organ dry weight (g) ([3]; Pancreas, 2 hours after oral 30 mg M4N in castor oil): 0.57 ng/g; M4N (ng)/organ dry weight (g) ([3]; Pancreas, 4 hours after oral 30 mg M4N in castor oil): 24.69 ng/g; M4N (ng)/organ dry weight (g) ([3]; Pancreas, 8 hours after oral 30 mg M4N in castor oil): 2.97 ng/g; M4N (ng)/organ dry weight (g) ([3]; Seminal Vesicles, 2 hours after oral 30 mg M4N in castor oil): 0.21 ng/g; M4N (ng)/organ dry weight (g) ([3]; Seminal Vesicles, 4 hours after oral 30 mg M4N in castor oil): 0.37 ng/g; M4N (ng)/organ dry weight (g) ([3]; Seminal Vesicles, 8 hours after oral 30 mg M4N in castor oil): 0 ng/g; M4N (ng)/organ dry weight (g) ([3]; Small Intestine, 2 hours after oral 30 mg M4N in castor oil): 0.09 ng/g; M4N (ng)/organ dry weight (g) ([3]; Small Intestine, 4 hours after oral 30 mg M4N in castor oil): 8.42 ng/g; M4N (ng)/organ dry weight (g) ([3]; Small Intestine, 8 hours after oral 30 mg M4N in castor oil): 5.53 ng/g; M4N (ng)/organ dry weight (g) ([3]; Spleen, 2 hours after oral 30 mg M4N in castor oil): 1.1 ng/g; M4N (ng)/organ dry weight (g) ([3]; Spleen, 4 hours after oral 30 mg M4N in castor oil): 0.16 ng/g; M4N (ng)/organ dry weight (g) ([3]; Spleen, 8 hours after oral 30 mg M4N in castor oil): 0 ng/g; M4N (ng)/organ dry weight (g) ([3]; Stomach, 2 hours after oral 30 mg M4N in castor oil): 0.23 ng/g; M4N (ng)/organ dry weight (g) ([3]; Stomach, 4 hours after oral 30 mg M4N in castor oil): 45.03 ng/g; M4N (ng)/organ dry weight (g) ([3]; Stomach, 8 hours after oral 30 mg M4N in castor oil): 33.9 ng/g; M4N present in tissue ([3]; pancreas, 4 hours post-feeding): Significant quantities; Time of peak M4N levels ([3]; post-feeding, single oral 30 mg): roughly 4 hours; Suppression of tumor growth / tumoricidal activity [4]: substantial tumoricidal activity; also recorded: some evidence of suppression of tumor growth; Dose delivered without drug-related toxicity ([5]; for up to five days, with or without concomitant G4N 20 mg per day): ≤ 20 mg per day; Patients remaining disease free ([5]; long-term follow ups, M4N with or without G4N, then surgical resection): 64%; Efficacy in terms of induction of necrosis [5, 7]: over 80%; Growth of human tumor cells in culture [6]: effectively prevent the growth
